Test results reported in ChEMBL document CHEMBL1201862, “PubChem BioAssay data set” (2004).
Counter-ions that a name gives are not always drawn. Values belong to the molecule of their own block, whether it stands above or below them. The source made the active and inactive calls.

Tests used:
[1] = cytotoxicity in A549 cells, dose response, cytotoxicity control, cell-based, CellTiter-Glo luminescence, cherry-pick (AID 743484); format: functional
[2] = biological target: Oxysterols receptor LXR-beta (Homo sapiens, UniProt P55055); format: functional, cell-based;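 further: Cell-based luminescence dose-response assay of agonist activity at LXR, run as a confirmatory counterscreen to a daf-12 agonist screen; HEK293 cells with Gal4-LXR fusion and GAL4-driven luciferase reporter; agonist potency from rising luciferase signal of a Gal4-LXR reporter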
cells [3] = assay: cells
[4] = A375 melanoma cell cytotoxicity, dose response, counter-screen for MITF inhibitor project, CellTiter-Glo luminescence, dry powder, set 2 (AID 624489); format: functional, cell-based; conditions: A-375;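 further: actives are compounds lowering A375 viability meaning general cytotoxicity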
[5] = A375 melanoma cell viability loss, dose response, counter-screen for MITF inhibitor project, CellTiter-Glo luminescence, dry powder, set 4 (AID 624364); format: functional, cell-based; conditions: A-375;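 further: A375 melanoma cells are MITF independent so this is a counter screen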
[6] = biological target: E3 ubiquitin-protein ligase UHRF1 (Homo sapiens, UniProt Q96T88); assay: Counterscreen for inhibitors of 5-meCpG-binding domain protein 2 (MBD2): TRFRET-based biochemical high throughput dose response assay to identify inhibitors of binding of ubiquitin-like with PHD and ring finger domains 1 (UHRF1) to methylated oligonucleotide.
Fibrinogen beta chain [7] = biological target: T1, Fibrinogen beta chain (Homo sapiens, UniProt P02675); assay: Fluorescence polarization-based biochemical high throughput dose response assay to identify inhibitors that disrupt the binding of a cyclic peptide (Tn7) to the fibrin proteolytic product D-Dimer and fragment E complex [DD(E )].
Fibrinogen beta chain [8] = biological target: T1, Fibrinogen beta chain; assay: Fluorescence polarization-based biochemical high throughput dose response assay to identify inhibitors that disrupt the binding of a cyclic peptide (Tn6) to the fibrin proteolytic product D-Dimer and fragment E complex [DD(E )].
[9] = biological target: T2, Rac GTPase-activating protein 1 (Homo sapiens, UniProt Q9H0H5); assay: MgcRacGAP GTPase-activating activity inhibitors, confirmation, biochemical, ADP Hunter fluorescence, primary and confirmatory (AID 624330); format: functional
T2 sequence (Q9H0H5 whole entry): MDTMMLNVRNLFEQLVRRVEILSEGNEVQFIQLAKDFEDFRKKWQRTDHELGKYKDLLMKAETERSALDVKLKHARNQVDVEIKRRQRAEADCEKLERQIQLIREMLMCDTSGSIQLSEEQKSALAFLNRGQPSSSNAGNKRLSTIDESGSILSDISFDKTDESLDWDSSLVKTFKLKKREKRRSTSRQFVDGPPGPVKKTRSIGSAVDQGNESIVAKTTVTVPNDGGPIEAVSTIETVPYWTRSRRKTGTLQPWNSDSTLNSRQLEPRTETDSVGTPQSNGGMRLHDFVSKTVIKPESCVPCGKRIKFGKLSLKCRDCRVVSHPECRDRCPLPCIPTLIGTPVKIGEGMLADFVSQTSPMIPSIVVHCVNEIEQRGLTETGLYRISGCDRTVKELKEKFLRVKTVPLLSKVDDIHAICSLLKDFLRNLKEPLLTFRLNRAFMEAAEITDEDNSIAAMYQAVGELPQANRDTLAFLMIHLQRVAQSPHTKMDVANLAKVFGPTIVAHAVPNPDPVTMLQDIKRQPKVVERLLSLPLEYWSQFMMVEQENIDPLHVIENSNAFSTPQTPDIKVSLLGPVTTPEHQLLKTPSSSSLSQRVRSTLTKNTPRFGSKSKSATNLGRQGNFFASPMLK

[10] = HepG2 cell cytotoxicity, dose response, cytotoxicity control, ATP luminescence, dry powder, set 2 (AID 743129); format: functional, cell-based
[11] = HEK293 cell cytotoxicity, dose response, cytotoxicity control, ATP luminescence, dry powder, set 3 (AID 743131); format: functional, cell-based
[12] = biological target: G-protein coupled receptor 183 (Homo sapiens, UniProt P32249); assay: SAR confirmation of small molecule antagonists of the EBI2 receptor via a luminescent beta-arrestin assa.; format: functional
[13] = biological target: Protein disulfide-isomerase (Homo sapiens, UniProt P07237); assay: PDI inhibitors, insulin aggregation turbidity, dose response, biochemical, absorbance, cherry-picked samples (AID 602350); format: functional
[14] = biological target: DNA (cytosine-5)-methyltransferase 1 (Homo sapiens, UniProt P26358); assay: DNMT1 methyltransferase inhibitors, confirmation, biochemical, fluorescent molecular beacon (AID 602386); format: functional
ELAV-like protein 1 = ELAV-like protein 1 (Homo sapiens, UniProt Q15717); assay: Identify HuR specific inhibitors.; format: functional
[15] = Dose-response inhibition of insulin secretion in a rat insulinoma line at 5 mM glucose (AID 1117331); format: functional, cell-based; conditions: INS-1E
[16] = biological target: T3, DNA repair protein RAD52 homolog (Homo sapiens, UniProt P43351); format: functional, biochemical
T3 sequence (P43351 whole entry): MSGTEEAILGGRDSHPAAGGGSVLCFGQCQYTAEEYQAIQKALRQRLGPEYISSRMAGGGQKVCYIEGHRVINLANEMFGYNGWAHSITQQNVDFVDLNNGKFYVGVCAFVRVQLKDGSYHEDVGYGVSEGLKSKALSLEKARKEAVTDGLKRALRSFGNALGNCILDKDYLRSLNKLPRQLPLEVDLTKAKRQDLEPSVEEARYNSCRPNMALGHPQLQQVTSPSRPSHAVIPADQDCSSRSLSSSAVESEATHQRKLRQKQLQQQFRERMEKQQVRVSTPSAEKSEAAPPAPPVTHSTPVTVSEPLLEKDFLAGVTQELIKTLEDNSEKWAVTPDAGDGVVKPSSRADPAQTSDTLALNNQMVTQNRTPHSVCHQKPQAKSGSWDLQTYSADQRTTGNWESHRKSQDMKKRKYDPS

cells [17] = format: functional, cell-based; conditions: INS-1E

T1 sequence (P02675 whole entry, the tested form may be a part): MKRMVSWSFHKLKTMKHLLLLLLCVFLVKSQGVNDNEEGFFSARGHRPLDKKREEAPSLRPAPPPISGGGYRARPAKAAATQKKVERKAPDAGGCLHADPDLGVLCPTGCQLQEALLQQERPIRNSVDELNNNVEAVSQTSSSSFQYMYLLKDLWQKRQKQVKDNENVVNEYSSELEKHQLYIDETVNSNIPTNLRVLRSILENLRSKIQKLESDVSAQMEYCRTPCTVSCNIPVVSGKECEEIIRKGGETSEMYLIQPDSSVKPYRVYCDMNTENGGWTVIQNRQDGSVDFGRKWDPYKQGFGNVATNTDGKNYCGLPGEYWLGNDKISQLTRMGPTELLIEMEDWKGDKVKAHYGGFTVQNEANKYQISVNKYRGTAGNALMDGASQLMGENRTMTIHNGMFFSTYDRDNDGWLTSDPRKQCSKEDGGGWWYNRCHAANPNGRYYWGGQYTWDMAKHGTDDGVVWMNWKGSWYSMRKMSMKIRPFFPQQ
E3 ubiquitin-protein ligase UHRF1, sequence (Q96T88 whole entry, the tested form may be a part): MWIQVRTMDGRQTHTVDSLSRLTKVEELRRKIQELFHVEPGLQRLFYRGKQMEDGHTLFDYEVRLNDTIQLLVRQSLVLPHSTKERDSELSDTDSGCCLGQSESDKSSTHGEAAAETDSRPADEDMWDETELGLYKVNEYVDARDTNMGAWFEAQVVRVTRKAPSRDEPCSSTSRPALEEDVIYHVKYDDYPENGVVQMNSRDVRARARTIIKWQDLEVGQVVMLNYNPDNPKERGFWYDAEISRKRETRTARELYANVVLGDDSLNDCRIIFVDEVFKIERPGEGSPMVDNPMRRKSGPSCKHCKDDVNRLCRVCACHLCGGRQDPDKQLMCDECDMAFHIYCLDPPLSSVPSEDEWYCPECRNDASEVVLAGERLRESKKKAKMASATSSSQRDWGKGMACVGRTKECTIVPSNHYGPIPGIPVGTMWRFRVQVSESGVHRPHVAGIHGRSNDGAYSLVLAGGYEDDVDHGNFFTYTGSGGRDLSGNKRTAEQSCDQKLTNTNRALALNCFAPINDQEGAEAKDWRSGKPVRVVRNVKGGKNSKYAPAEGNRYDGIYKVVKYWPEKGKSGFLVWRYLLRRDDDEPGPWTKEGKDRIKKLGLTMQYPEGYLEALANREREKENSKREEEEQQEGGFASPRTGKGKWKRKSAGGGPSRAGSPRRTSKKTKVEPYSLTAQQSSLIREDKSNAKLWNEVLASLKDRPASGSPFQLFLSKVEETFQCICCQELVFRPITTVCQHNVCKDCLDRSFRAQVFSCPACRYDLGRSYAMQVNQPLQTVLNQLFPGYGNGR
DNA (cytosine-5)-methyltransferase 1, sequence (P26358 whole entry): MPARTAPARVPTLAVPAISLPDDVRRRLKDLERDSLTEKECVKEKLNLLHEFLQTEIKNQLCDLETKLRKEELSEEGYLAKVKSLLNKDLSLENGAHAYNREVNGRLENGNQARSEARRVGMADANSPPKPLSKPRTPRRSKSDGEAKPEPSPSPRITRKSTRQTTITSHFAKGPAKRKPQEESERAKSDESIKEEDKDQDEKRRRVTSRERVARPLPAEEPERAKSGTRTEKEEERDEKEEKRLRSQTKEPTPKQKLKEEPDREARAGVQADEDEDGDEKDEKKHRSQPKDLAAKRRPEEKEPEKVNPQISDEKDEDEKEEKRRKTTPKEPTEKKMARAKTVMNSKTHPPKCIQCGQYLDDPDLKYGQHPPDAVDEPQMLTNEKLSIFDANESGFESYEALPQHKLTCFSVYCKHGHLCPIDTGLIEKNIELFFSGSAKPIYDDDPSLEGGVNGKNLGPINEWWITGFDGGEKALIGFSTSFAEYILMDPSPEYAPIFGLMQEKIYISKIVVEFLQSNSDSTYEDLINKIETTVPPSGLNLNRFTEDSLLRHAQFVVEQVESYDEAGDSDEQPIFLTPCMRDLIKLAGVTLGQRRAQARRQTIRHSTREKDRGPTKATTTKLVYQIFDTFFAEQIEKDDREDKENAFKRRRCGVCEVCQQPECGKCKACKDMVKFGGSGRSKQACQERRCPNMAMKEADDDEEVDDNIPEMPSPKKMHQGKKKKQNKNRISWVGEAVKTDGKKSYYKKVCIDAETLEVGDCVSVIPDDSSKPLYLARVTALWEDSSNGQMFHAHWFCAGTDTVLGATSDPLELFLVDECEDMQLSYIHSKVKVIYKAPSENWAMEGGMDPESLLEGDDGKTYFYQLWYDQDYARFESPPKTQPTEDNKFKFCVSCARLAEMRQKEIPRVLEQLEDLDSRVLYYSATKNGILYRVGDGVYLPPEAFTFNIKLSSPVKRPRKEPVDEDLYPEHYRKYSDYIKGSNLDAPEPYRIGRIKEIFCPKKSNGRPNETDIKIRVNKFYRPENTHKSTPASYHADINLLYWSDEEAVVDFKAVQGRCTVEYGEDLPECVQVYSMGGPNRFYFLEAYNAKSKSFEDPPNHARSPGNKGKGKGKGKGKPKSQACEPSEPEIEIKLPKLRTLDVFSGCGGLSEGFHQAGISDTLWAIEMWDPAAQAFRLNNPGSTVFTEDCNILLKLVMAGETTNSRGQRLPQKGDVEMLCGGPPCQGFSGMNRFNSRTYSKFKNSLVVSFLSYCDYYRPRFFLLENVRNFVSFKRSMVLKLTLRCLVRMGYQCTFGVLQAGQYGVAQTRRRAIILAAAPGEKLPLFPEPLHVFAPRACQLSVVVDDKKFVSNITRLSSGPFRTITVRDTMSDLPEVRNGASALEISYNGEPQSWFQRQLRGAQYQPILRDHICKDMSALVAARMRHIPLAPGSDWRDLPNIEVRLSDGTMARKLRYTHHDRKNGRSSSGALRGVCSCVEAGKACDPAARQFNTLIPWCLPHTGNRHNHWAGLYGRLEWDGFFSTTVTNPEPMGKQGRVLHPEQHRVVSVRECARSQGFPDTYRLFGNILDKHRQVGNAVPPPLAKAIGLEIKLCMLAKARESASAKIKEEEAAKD
Oxysterols receptor LXR-beta, sequence (P55055 whole entry, the tested form may be a part): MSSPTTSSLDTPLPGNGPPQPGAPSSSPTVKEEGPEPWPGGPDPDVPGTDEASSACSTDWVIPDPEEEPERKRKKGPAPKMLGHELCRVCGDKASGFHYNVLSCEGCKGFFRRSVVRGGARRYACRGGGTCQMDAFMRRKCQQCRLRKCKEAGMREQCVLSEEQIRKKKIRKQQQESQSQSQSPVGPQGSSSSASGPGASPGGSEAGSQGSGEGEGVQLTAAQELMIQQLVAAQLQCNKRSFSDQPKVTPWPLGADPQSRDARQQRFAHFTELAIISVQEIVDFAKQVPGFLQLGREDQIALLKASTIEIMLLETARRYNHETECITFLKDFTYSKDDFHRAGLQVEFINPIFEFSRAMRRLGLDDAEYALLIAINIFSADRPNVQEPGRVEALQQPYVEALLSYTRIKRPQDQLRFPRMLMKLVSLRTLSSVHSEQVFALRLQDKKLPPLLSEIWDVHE
ELAV-like protein 1, sequence (Q15717 whole entry): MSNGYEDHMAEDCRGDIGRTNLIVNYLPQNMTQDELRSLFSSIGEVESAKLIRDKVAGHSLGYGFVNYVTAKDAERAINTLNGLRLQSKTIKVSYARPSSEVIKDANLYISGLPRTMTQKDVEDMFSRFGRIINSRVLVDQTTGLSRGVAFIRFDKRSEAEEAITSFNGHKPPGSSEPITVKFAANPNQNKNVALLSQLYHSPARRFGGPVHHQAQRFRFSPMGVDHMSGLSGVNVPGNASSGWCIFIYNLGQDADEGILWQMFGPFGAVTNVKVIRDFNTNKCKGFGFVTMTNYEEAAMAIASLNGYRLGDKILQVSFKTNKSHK
G-protein coupled receptor 183, sequence (P32249 whole entry): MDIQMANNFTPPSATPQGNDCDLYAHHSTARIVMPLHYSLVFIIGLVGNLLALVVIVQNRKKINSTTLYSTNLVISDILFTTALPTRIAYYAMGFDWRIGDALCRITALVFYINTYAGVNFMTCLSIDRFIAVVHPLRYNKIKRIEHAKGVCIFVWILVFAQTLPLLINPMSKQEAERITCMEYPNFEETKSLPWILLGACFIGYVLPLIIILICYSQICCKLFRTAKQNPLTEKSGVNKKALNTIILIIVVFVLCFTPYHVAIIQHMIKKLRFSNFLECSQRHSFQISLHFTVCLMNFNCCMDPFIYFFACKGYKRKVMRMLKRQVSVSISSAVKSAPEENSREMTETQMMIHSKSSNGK
Protein disulfide-isomerase, sequence (P07237 whole entry): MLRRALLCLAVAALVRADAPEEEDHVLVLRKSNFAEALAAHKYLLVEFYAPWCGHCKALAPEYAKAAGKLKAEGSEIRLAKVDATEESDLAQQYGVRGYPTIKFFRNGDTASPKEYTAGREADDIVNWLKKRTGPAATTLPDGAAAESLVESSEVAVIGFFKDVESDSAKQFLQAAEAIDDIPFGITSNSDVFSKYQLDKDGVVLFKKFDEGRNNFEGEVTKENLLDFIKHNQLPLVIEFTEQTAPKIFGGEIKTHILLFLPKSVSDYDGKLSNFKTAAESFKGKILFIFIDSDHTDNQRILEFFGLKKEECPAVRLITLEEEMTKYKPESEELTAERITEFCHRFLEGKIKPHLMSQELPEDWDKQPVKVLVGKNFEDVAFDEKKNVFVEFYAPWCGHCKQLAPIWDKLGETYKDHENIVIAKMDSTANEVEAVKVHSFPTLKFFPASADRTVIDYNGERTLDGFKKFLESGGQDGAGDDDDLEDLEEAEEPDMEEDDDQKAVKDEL

Compound: CC(CNc1ccc(Cl)cc1)(CNc1ccc(Cl)cc1)[N+](=O)[O-]
AC50 [1]: > 52 µM (inactive)

Compound: O=C1C(/C=N/c2ccccc2)=C(O)c2ccccc21
EC50 [2]: > 67.5 µM (inactive)
EC50 (cells [3]): > 67.5 µM (inactive)

Compound: COc1ccc(C(=O)NC2=C(c3ccccc3)C(=O)c3ccccc3C2=O)cc1
AC50 [4]: 20.9 µM (active)
AC50 [5]: 40.6 µM (active)

IC50 [6]: > 43.8 µM (inactive)
Compound: CC(=O)Nc1sc2c(c1-c1nc3ccccc3s1)CN(C(C)C)C2

IC50 (Fibrinogen beta chain [7]): > 83.3 µM (inactive)
IC50 (Fibrinogen beta chain [8]): > 83.3 µM (inactive)
IC50 [9]: 9.5 µM (active)
Compound: CCC/C(=N\c1ccc(N)cc1)C1=C(O)C(C(=O)OC)C(C)(C)CC1=O (stereo not drawn)

Compound: CCOC(=O)c1c(NC(=O)CNCCN(C)C)sc(C)c1-c1ccccc1
AC50 [10]: > 52 µM (inactive)
AC50 [11]: 7.22 µM (active)

IC50 [12]: 0.0196 µM (active)
Compound: O=C(/C=C/c1ccc(F)cc1)N1CCN(S(=O)(=O)c2cccc(F)c2)CC1

AC50 [13]: 8.03 µM (active)
IC50 [14]: 6.06 µM (active)
IC50 (ELAV-like protein 1): 69.6 µM (inactive)
Compound: COC(=O)CC1OCC=C2CN3CCC45C6=CC(=O)C(=O)C([N+](=O)[O-])=C6NC4C1C2CC35 (stereo not drawn)

Compound: CCC(=O)c1ccc2c(c1)N(CCCN(C)C)c1ccccc1S2 [PROPIONYLPROMAZINE HYDROCHLORIDE]
IC50 [15]: 10.7 µM (inactive)
AC50 [16]: 31.4 µM (active)
IC50 (cells [17]): > 33.3 µM (inactive)
